Data reported in US20250230159A1, “FUSED HETEROCYCLIC COMPOUNDS AS MODULATORS OF RAS SIGNALLING” (Shenzhen Ionova Life Science Co., Ltd., priority 2022, published 2025).

Each compound was assayed against KRAS-G12C/SOS1 interaction (Homo sapiens (Human), UniProt Q07889) (assay: Protein-Protein Interaction (PPI) assay, SOS1-KRAS binding assay kit (HTRF)). Conditions: not given.
Protocol: This Example illustrates that exemplary compounds of the present invention blockade the interaction of SOS1 to KRAS protein.
The ability of a compound of Formula (I) to block the interaction of SOS1 to KRAS was measured using a SOS1-KRAS binding assay kit (CAT #63ADK000CB16PEG, Cisbio). Utilizing HTRF (Homogeneous Time-resolved Fluorescence) technology, the assay enables simple and rapid characterization of compound and antibody blockers in a high throughput format. The interaction between Tag1-SOS1 and Tag2-KRAS-G12C is detected by using anti-Tag1-Terbium antibody (HTRF donor) and anti-Tag2-XL665 antibody (HTRF acceptor). When the donor and acceptor antibodies are brought into close proximity due to SOS1 and KRAS-G12C binding, excitation of the donor antibody triggers fluorescent resonance energy transfer (FRET) towards the acceptor antibody, which in turn emits specifically at 665 nm. This specific signal is directly proportional to the extent of KRAS-G12C/SOS1 interaction.
The assay was carried according to the manufacturer's instructions. Compounds at an initial concentration of 10 mM in DMSO were first serially diluted on a 384-well plate using assay buffer at a ratio of 1:3 for a total of 9 concentrations with each of a volume of 20 μL. Blank buffer was included as the negative control. The final compound solution was in the buffer solution with 1% DMSO. Then, in each well of a 384-well plate, a solution of 2 μL compound solution, 4 μL tagged SOS1 and KRAS (G12C) protein stocks, respectively, and 10 μM GTP was incubated for 15 min. 10 μL mixture of […] antibody and anti-Tag1-Terbium antibody was introduced to each individual well. After 2 hours incubation at room temperature, fluorescence readout was measured with a Pelkin Elmer multiple plate reader VICTOR Nivo.
Excitation was from over a range of 245-395 nm, and emission from the donor (emission 1) was detected at […] and emission from the acceptor (emission 2) was detected at (606.5-623.5) nm. The HTRF ratio was calculated using the formula: (emission 1 @665 nm/emission 2 @620 nm)×10000. Thus, compounds blocking KRAS-G12C/SOS1 interaction will cause a reduction in HTRF signal ratio. The IC50 values were then calculated with the Graph pad Prism software.

Sequence of KRAS-G12C/SOS1 interaction (Q07889 whole entry, stated change not applied): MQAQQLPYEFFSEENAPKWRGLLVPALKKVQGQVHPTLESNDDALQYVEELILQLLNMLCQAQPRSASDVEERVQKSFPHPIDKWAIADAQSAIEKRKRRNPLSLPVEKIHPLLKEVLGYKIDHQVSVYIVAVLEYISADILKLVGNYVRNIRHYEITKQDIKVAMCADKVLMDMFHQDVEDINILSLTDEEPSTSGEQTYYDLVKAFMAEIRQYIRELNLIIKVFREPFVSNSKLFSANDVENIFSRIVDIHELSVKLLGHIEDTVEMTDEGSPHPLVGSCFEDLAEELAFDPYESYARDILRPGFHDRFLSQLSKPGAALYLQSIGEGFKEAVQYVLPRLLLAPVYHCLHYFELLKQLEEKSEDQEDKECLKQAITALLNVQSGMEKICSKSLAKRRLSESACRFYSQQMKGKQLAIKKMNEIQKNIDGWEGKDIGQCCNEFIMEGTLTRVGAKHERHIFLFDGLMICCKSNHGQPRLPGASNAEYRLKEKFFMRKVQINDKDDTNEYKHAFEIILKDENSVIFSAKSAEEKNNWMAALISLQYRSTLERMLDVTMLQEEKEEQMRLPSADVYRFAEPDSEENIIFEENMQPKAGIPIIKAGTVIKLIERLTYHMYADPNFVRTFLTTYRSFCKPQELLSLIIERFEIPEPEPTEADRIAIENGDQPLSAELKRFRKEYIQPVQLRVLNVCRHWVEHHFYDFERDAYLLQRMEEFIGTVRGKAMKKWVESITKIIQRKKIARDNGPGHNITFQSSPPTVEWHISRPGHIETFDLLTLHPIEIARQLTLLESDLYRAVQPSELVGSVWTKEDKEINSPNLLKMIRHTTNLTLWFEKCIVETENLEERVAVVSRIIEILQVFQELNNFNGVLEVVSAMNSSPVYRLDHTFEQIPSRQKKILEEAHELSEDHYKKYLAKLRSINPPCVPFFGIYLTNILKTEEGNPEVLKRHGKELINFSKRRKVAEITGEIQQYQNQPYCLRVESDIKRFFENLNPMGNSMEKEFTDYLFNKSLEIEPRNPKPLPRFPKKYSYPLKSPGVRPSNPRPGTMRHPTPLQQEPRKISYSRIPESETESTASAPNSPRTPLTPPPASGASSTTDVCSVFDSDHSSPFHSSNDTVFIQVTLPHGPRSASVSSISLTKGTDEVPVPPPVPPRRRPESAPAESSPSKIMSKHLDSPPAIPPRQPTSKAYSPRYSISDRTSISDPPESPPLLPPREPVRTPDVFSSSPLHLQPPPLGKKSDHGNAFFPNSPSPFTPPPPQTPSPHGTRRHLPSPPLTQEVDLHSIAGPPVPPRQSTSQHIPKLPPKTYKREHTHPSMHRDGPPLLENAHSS

Row | SMILES | IC50
1 | Cc1nc(N[C@H](C)c2cccc(C(F)F)c2F)c2cc(C(=O)N(C(C)C)C(C)C)c3ncnn3c2n1 [Example 7] | > 100 nM
2 | Cc1nc(N[C@H](C)c2cccc(C(F)F)c2F)c2cc(C(=O)N(C)C3COC3)c3ncnn3c2n1 [Example 8] | > 100 nM
3 | CNC(=O)c1cc2c(N[C@H](C)c3cccc(C(F)F)c3F)nc(C)nc2n2ncnc12 [Example 9] | > 100 nM
4 | Cc1nc(N[C@H](C)c2cccc(C(F)F)c2F)c2cc(C(=O)NC(C)(C)C)c3ncnn3c2n1 [Example 10] | > 100 nM
5 | Cc1nc(N[C@H](C)c2cccc(C(F)F)c2F)c2cc(C(=O)N3CCOC[C@H]3C)c3ncnn3c2n1 [Example 15] | > 100 nM
6 | Cc1nc(N[C@H](C)c2cccc(C(F)F)c2F)c2cc(C(=O)N3CC4(CCC4)C3)c3ncnn3c2n1 [Example 28] | > 100 nM
7 | CCOC(=O)c1cc2c(N[C@H](C)c3cccc(C(F)F)c3F)nc(C)nc2n2cnnc12 [Example 53] | > 100 nM
8 | Cc1nc(N[C@H](C)c2cccc(C(F)F)c2F)c2cc(C(=O)N(C(C)C)C(C)C)c3nnnn3c2n1 [Example 56] | > 100 nM
9 | Cc1nc(N[C@H](C)c2cccc(C(F)F)c2F)c2cc(C(=O)NC(C)(C)C)c3nnnn3c2n1 [Example 57] | > 100 nM
10 | Cc1nc(N[C@H](C)c2cccc(C(F)F)c2F)c2cc(C(=O)N3C4COCC3C4)c3nnnn3c2n1 [Example 65] | > 100 nM
11 | Cc1nc(N[C@H](C)c2cccc(C(F)F)c2F)c2cc(N3CCC(F)(F)CC3)c3nncn3c2n1 [Example 75] | > 100 nM
12 | Cc1nc(N[C@H](C)c2cccc(C(F)F)c2F)c2cc(N3CC(O)C3)c3nncn3c2n1 [Example 77] | > 100 nM
13 | C[C@@H](Nc1ncnc2c1cc(N1C3COCC1C3)c1nncn12)c1cccc(C(F)F)c1F [Example 80] | > 100 nM
14 | C[C@@H](Nc1ncnc2c1cc(N1CC(C#N)C1)c1nncn12)c1cccc(C(F)F)c1F [Example 81] | > 100 nM
15 | CC(=O)N1CC2(C1)CN(c1cc3c(N[C@H](C)c4cccc(C(F)F)c4F)ncnc3n3cnnc13)C2 [Example 82] | > 100 nM
16 | Cc1c([C@@H](C)Nc2ncnc3c2cc(N2CCOCC2)c2nncn23)cccc1C(F)(F)F [Example 83] | > 100 nM
17 | C[C@@H](Nc1ncnc2c1cc(N1CCOCC1)c1nncn12)c1cccc(C(F)(F)F)c1F [Example 84] | > 100 nM
18 | Cc1nc(N[C@H](C)c2cc(N)cc(C(F)(F)F)c2)c2cc(N3CCOCC3)c3nnc(C)n3c2n1 [Example 87] | > 100 nM
19 | C[C@@H](Nc1ncnc2c1cc(NC1CCS(=O)(=O)CC1)c1nncn12)c1cccc(C(F)F)c1F [Example 89] | > 100 nM
20 | CC(=O)N1CC=C(c2cc3c(N[C@H](C)c4cccc(C(F)F)c4F)nc(C)nc3n3cnnc23)CC1(C)C [Example 102] | > 100 nM
21 | CC(=O)N1CC=C(c2cc3c(N[C@H](C)c4cccc(C(F)F)c4F)nc(C)nc3n3cnnc23)C1 [Example 103] | > 100 nM

Same assay, conditions: read-out: PPI Assay IC50

Row | SMILES | IC50
22 | Cc1nc(N[C@H](C)c2cccc(C(F)F)c2F)c2cc(C(=O)N3CCOC[C@@H]3C)c3ncnn3c2n1 [Example 12] | < 100 nM
23 | Cc1nc(N[C@H](C)c2cccc(C(F)F)c2F)c2cc(C(=O)N3CCOCC3(C)C)c3ncnn3c2n1 [Example 14] | < 100 nM
24 | Cc1nc(N[C@H](C)c2cccc(C(F)F)c2F)c2cc(C(=O)N3CCCCC3)c3ncnn3c2n1 [Example 16] | < 100 nM
25 | Cc1nc(N[C@H](C)c2cccc(C(F)F)c2F)c2cc(C(=O)N3CC(O)C3)c3ncnn3c2n1 [Example 25] | < 100 nM
26 | CC(=O)N1CC2(CCN2C(=O)c2cc3c(N[C@H](C)c4cccc(C(F)F)c4F)nc(C)nc3n3ncnc23)C1 [Example 30] | < 100 nM
27 | Cc1nc(N[C@H](C)c2cccc(C(F)F)c2F)c2cc(C(=O)N3CCCC34CCCC4)c3ncnn3c2n1 [Example 32] | < 100 nM
28 | Cc1nc(N[C@H](C)c2cccc(C(F)F)c2F)c2cc(C(=O)N3CCC4(CCOC4)C3)c3ncnn3c2n1 (some centres unmarked) [Example 34] | < 100 nM
29 | C[C@@H](Nc1ncnc2c1cc(C(=O)N(C)C)c1ncnn12)c1cccc(C(F)F)c1F [Example 40] | < 100 nM
30 | C[C@@H](Nc1ncnc2c1cc(C(=O)N1CCN(CCS(C)(=O)=O)CC1)c1ncnn12)c1cccc(C(F)F)c1F [Example 41] | < 100 nM
31 | C[C@@H](Nc1ncnc2c1cc(C(=O)N1CCC13COC3)c1ncnn12)c1cccc(C(F)F)c1F [Example 43] | < 100 nM
32 | C[C@@H](Nc1ncnc2c1cc(C(=O)N1CCCC13CCOC3)c1ncnn12)c1cccc(C(F)F)c1F (some centres unmarked) [Example 44] | < 100 nM
33 | C[C@@H](Nc1ncnc2c1cc(C(=O)N1CCC13CNC3)c1ncnn12)c1cccc(C(F)F)c1F [Example 45] | < 100 nM
34 | C[C@@H](Nc1ncnc2c1cc(C(=O)N1C3COCC1C3)c1ncnn12)c1cccc(C(F)F)c1F [Example 46] | < 100 nM
35 | C[C@@H](Nc1ncnc2c1cc(C(=O)N1C3CCN(C)CC1C3)c1ncnn12)c1cccc(C(F)F)c1F (some centres unmarked) [Example 48] | < 100 nM
36 | C[C@@H](Nc1ncnc2c1cc(C(=O)N1C3CCC1COC3)c1ncnn12)c1cccc(C(F)F)c1F [Example 49] | < 100 nM
37 | Cc1nc(N[C@H](C)c2cccc(C(F)F)c2F)c2cc(C(=O)N3CCCC34CCOC4)c3nncn3c2n1 (some centres unmarked) [Example 52] | < 100 nM
38 | Cc1nc(N[C@H](C)c2cccc(C(F)F)c2F)c2cc(C(=O)N3CCOCC3)c3nccn3c2n1 [Example 54, (R)-(4-((1-(3-(difluoromethyl)-2-fluorophenyl)ethyl)amino)-2-methylimidazo[1′,2′:1,6]pyrido[2,3-d]pyrimidin-6-yl)(morpholino)methanone] | < 100 nM
39 | Cc1nc(N[C@H](C)c2cccc(C(F)F)c2F)c2cc(C(=O)N3CCN(CCS(C)(=O)=O)CC3)c3nnnn3c2n1 [Example 59] | < 100 nM
40 | CC(=O)N1CC2(CCN2C(=O)c2cc3c(N[C@H](C)c4cccc(C(F)F)c4F)nc(C)nc3n3nnnc23)C1 [Example 61] | < 100 nM
41 | Cc1nc(N[C@H](C)c2cccc(C(F)F)c2F)c2cc(C(=O)N3CCC34COC4)c3nnnn3c2n1 [Example 63] | < 100 nM
42 | Cc1nc(N[C@H](C)c2cccc(C(F)F)c2F)c2cc(C(=O)N3C4CCC3COC4)c3nnnn3c2n1 [Example 64] | < 100 nM
43 | C[C@H](O)C(=O)N1CCC(c2cc3c(N[C@H](C)c4cccc(C(F)F)c4F)ncnc3n3cnnc23)CC1 [Example 72] | < 100 nM
44 | CC(=O)N1CC2(C1)CN(c1cc3c(N[C@H](C)c4cccc(C(F)F)c4F)nc(C)nc3n3cnnc13)C2 [Example 78] | < 100 nM
45 | Cc1nc(N[C@H](C)c2cccc(C(F)F)c2F)c2cc([C@H]3CC[C@@H](O)CC3)c3nncn3c2n1 [Example 90-P1, Cis-4-(4-(((R)-1-(3-(difluoromethyl)-2-fluorophenyl)ethyl)amino)-2-methyl-[1,2,4]triazolo[4′,3′:1,6]pyrido[2,3-d]pyrimidin-6-yl)cyclohexan-1-ol] | < 100 nM
46 | Cc1nc(N[C@H](C)c2cccc(C(F)F)c2F)c2cc([C@H]3CC[C@H](O)CC3)c3nncn3c2n1 [Example 90-P2, trans-4-(4-(((R)-1-(3-(difluoromethyl)-2-fluorophenyl)ethyl)amino)-2-methyl-[1,2,4]triazolo[4′,3′:1,6]pyrido[2,3-d]pyrimidin-6-yl)cyclohexan-1-ol] | < 100 nM
47 | Cc1nc(N[C@H](C)c2cccc(C(F)F)c2F)c2cc(N3CC(C(=O)N(C)C)C3)c3nnnn3c2n1 [Example 94] | < 100 nM
